From ChEMBL document CHEMBL3885861, “Open TG-GATES”

Species on record: Rattus norvegicus
Assay: Open TG-GATES - Regimen: Daily Repeat
Format: toxicity, organism-based, Sprague-Dawley
Set-up: regimen Daily Repeat, gender Male, age 6 weeks
Settings: in vivo, po, 30 mg/kg, route gavage, dose level Low; for APTT / Bas / Eos / Fbg / Hb / Ht / Lym / MCH / MCHC / MCV / Mono / Neu / PT / Plat / RBC / Ret / WBC: tissue Blood; for KIDNEY_L / KIDNEY_R / KIDNEY_TOTAL: tissue Kidney; for LIVER: tissue Liver; for A/G / ALP / ALT / AST / BUN / CRE / Ca / Cl / DBIL / GLC / IP / K / LDH / Na / PL / RALB / TBIL / TC / TG / TP / gamma-GTP: tissue Plasma

Structure (SMILES): CC(=O)Nc1ccc2c(c1)Cc1ccccc1-2 [2-ACETYLAMINOFLUORENE]
- TERMINAL_BW (72 h, time 3 day): 222.5 g
- APTT (72 h, time 3 day): 18.9 s
- Bas (72 h, time 3 day): 0.6%
- Eos (72 h, time 3 day): 1%
- Fbg (72 h, time 3 day): 226.6 mg/dL
- Hb (72 h, time 3 day): 14.8 g/dL
- Ht (72 h, time 3 day): 42.2%
- Lym (72 h, time 3 day): 81%
- MCH (72 h, time 3 day): 22.3 pg
- MCHC (72 h, time 3 day): 35%
- MCV (72 h, time 3 day): 63.7 fL
- Mono (72 h, time 3 day): 2.8%
- Neu (72 h, time 3 day): 14%
- PT (72 h, time 3 day): 12.3 s
- Plat (72 h, time 3 day): 131.4 x10_4/uL
- RBC (72 h, time 3 day): 663 x10_4/ul
- Ret (72 h, time 3 day): 4.1%
- WBC (72 h, time 3 day): 118 x10_2/uL
- KIDNEY_L (72 h, time 3 day): 1 g
- KIDNEY_R (72 h, time 3 day): 1 g
- KIDNEY_TOTAL (72 h, time 3 day): 2 g
- LIVER (72 h, time 3 day): 10.6 g
- A/G (72 h, time 3 day): 1.5
- ALP (72 h, time 3 day): 746.6 IU/L
- ALT (72 h, time 3 day): 26.6 IU/L
- AST (72 h, time 3 day): 69.2 IU/L
- BUN (72 h, time 3 day): 12.4 mg/dL
- CRE (72 h, time 3 day): 0.4 mg/dL
- Ca (72 h, time 3 day): 10.3 mg/dL
- Cl (72 h, time 3 day): 102.8 meq/L
- DBIL (72 h, time 3 day): 0.086 mg/dL
- GLC (72 h, time 3 day): 196.4 mg/dL
- IP (72 h, time 3 day): 7.2 mg/dL
- K (72 h, time 3 day): 4.1 meq/L
- LDH (72 h, time 3 day): 241 IU/L
- Na (72 h, time 3 day): 140.2 meq/L
- PL (72 h, time 3 day): 100.8 mg/dL
- RALB (72 h, time 3 day): 2.9 g/dL
- TBIL (72 h, time 3 day): 0.1 mg/dL
- TC (72 h, time 3 day): 50.2 mg/dL
- TG (72 h, time 3 day): 77 mg/dL
- TP (72 h, time 3 day): 5 g/dL
- gamma-GTP (72 h, time 3 day): 1.2 IU/L
- TERMINAL_BW ([…], time 7 day): 239.2 g
- TERMINAL_BW ([…], time 14 day): 259.1 g
- TERMINAL_BW ([…], time 28 day): 315.1 g
- APTT ([…], time 7 day): 18.4 s
- Bas ([…], time 7 day): 0.8%
- Eos ([…], time 7 day): 1%
- Fbg ([…], time 7 day): 204 mg/dL
- Hb ([…], time 7 day): 15.4 g/dL
- Ht ([…], time 7 day): 42.8%
- Lym ([…], time 7 day): 82%
- MCH ([…], time 7 day): 22.2 pg
- MCHC ([…], time 7 day): 35.9%
- MCV ([…], time 7 day): 61.9 fL
- Mono ([…], time 7 day): 3%
- Neu ([…], time 7 day): 12.6%
- PT ([…], time 7 day): 13 s
- Plat ([…], time 7 day): 159.6 x10_4/uL
- RBC ([…], time 7 day): 692.2 x10_4/ul
- Ret ([…], time 7 day): 1.8%
- WBC ([…], time 7 day): 125.9 x10_2/uL
- APTT ([…], time 14 day): 19.1 s
- Bas ([…], time 14 day): 1%
- Eos ([…], time 14 day): 0%
- Fbg ([…], time 14 day): 102.2 mg/dL
- Hb ([…], time 14 day): 14.7 g/dL
- Ht ([…], time 14 day): 42%
- Lym ([…], time 14 day): 79.8%
- MCH ([…], time 14 day): 19.7 pg
- MCHC ([…], time 14 day): 35%
- MCV ([…], time 14 day): 56.3 fL
- Mono ([…], time 14 day): 3.2%
- Neu ([…], time 14 day): 15.6%
- PT ([…], time 14 day): 14.9 s
- Plat ([…], time 14 day): 144.2 x10_4/uL
- RBC ([…], time 14 day): 747.2 x10_4/ul
- Ret ([…], time 14 day): 1.8%
- WBC ([…], time 14 day): 145.6 x10_2/uL
- APTT ([…], time 28 day): 25.4 s
- Bas ([…], time 28 day): 0.8%
- Eos ([…], time 28 day): 0.6%
- Fbg ([…], time 28 day): 78.2 mg/dL
- Hb ([…], time 28 day): 14 g/dL
- Ht ([…], time 28 day): 40.8%
- Lym ([…], time 28 day): 67.6%
- MCH ([…], time 28 day): 19 pg
- MCHC ([…], time 28 day): 34.3%
- MCV ([…], time 28 day): 55.4 fL
- Mono ([…], time 28 day): 4.2%
- Neu ([…], time 28 day): 26.4%
- PT ([…], time 28 day): 19.2 s
- Plat ([…], time 28 day): 102.7 x10_4/uL
- RBC ([…], time 28 day): 735.6 x10_4/ul
- Ret ([…], time 28 day): 5.3%
- WBC ([…], time 28 day): 274.6 x10_2/uL
- KIDNEY_L ([…], time 7 day): 1 g
- KIDNEY_R ([…], time 7 day): 1 g
- KIDNEY_TOTAL ([…], time 7 day): 2 g
- KIDNEY_L ([…], time 14 day): 1.1 g
- KIDNEY_R ([…], time 14 day): 1.1 g
- KIDNEY_TOTAL ([…], time 14 day): 2.2 g
- KIDNEY_L ([…], time 28 day): 1.3 g
- KIDNEY_R ([…], time 28 day): 1.3 g
- KIDNEY_TOTAL ([…], time 28 day): 2.6 g
- LIVER ([…], time 7 day): 10.5 g
- LIVER ([…], time 14 day): 9.9 g
- LIVER ([…], time 28 day): 10.2 g
- A/G ([…], time 7 day): 1.4
- ALP ([…], time 7 day): 1055.8 IU/L
- ALT ([…], time 7 day): 35 IU/L
- AST ([…], time 7 day): 88 IU/L
- BUN ([…], time 7 day): 13.8 mg/dL
- CRE ([…], time 7 day): 0.5 mg/dL
- Ca ([…], time 7 day): 10.2 mg/dL
- Cl ([…], time 7 day): 105.2 meq/L
- DBIL ([…], time 7 day): 0.096 mg/dL
- GLC ([…], time 7 day): 182.2 mg/dL
- IP ([…], time 7 day): 6.4 mg/dL
- K ([…], time 7 day): 3.9 meq/L
- LDH ([…], time 7 day): 271 IU/L
- Na ([…], time 7 day): 140.2 meq/L
- PL ([…], time 7 day): 110.6 mg/dL
- RALB ([…], time 7 day): 2.6 g/dL
- TBIL ([…], time 7 day): 0.2 mg/dL
- TC ([…], time 7 day): 44.4 mg/dL
- TG ([…], time 7 day): 115 mg/dL
- TP ([…], time 7 day): 4.4 g/dL
- gamma-GTP ([…], time 7 day): 1.6 IU/L
- A/G ([…], time 14 day): 1.3
- ALP ([…], time 14 day): 1040.6 IU/L
- ALT ([…], time 14 day): 42 IU/L
- AST ([…], time 14 day): 98.6 IU/L
- BUN ([…], time 14 day): 13 mg/dL
- CRE ([…], time 14 day): 0.5 mg/dL
- Ca ([…], time 14 day): 9.4 mg/dL
- Cl ([…], time 14 day): 104.6 meq/L
- DBIL ([…], time 14 day): 0.5 mg/dL
- GLC ([…], time 14 day): 171 mg/dL
- IP ([…], time 14 day): 7.1 mg/dL
- K ([…], time 14 day): 3.9 meq/L
- LDH ([…], time 14 day): 211.2 IU/L
- Na ([…], time 14 day): 141.2 meq/L
- PL ([…], time 14 day): 102.4 mg/dL
- RALB ([…], time 14 day): 2.2 g/dL
- TBIL ([…], time 14 day): 0.7 mg/dL
- TC ([…], time 14 day): 40.8 mg/dL
- TG ([…], time 14 day): 43.8 mg/dL
- TP ([…], time 14 day): 3.8 g/dL
- gamma-GTP ([…], time 14 day): 1.4 IU/L
- A/G ([…], time 28 day): 1
- ALP ([…], time 28 day): 883 IU/L
- ALT ([…], time 28 day): 57.8 IU/L
- AST ([…], time 28 day): 155.4 IU/L
- BUN ([…], time 28 day): 17.2 mg/dL
- CRE ([…], time 28 day): 0.4 mg/dL
- Ca ([…], time 28 day): 8.5 mg/dL
- Cl ([…], time 28 day): 103.6 meq/L
- DBIL ([…], time 28 day): 3 mg/dL
- GLC ([…], time 28 day): 130.6 mg/dL
- IP ([…], time 28 day): 6.8 mg/dL
- K ([…], time 28 day): 4.2 meq/L
- LDH ([…], time 28 day): 252.2 IU/L
- Na ([…], time 28 day): 140.2 meq/L
- PL ([…], time 28 day): 120.2 mg/dL
- RALB ([…], time 28 day): 1.7 g/dL
- TBIL ([…], time 28 day): 3.8 mg/dL
- TC ([…], time 28 day): 60.2 mg/dL
- TG ([…], time 28 day): 30.2 mg/dL
- TP ([…], time 28 day): 3.4 g/dL
- gamma-GTP ([…], time 28 day): 25.4 IU/L
